The values below come from patent publication US20200283498A1, “T CELL RECEPTOR FUSIONS AND CONJUGATES AND METHODS OF USE THEREOF” (Altor Bioscience LLC, priority 2008, published 2020).

For experiment [1], the system named is human NSCLC A549-A2 tumor cells. Description: Adoptive transfer of preincubated NK cells in A549-A2 experimental metastasis model. It is filed as in vivo, athymic nude mice. Particulars: CTX 200 mg/kg ip days 14, 21; NK cells preincubated with the protein iv days 16, 22 (CTX group: no NK cells).
Experiment [2] concerns p53 (aa 264-272) peptide-loaded T2 cells and CTLL-2 cells. Description: Cell-cell conjugation assay (flow cytometry). It is filed as cell-based, human T2 cells, mouse CTLL-2 cells. On the procedure:
FIG. 20A, FIG. 20B, FIG. 20C, and FIG. 20D depict in vitro conjugation of IL-2 receptor-bearing immune cells with antigen presenting target cells mediated by scTCR/IL-2 fusion protein. T2 cells were loaded with either p53 (aa 264-272) or p53 (aa 149-157) (control) peptides and then labeled with HE. CTLL-2 cells were labeled with calcein AM. Labeled cells were mixed and incubated in the presence or absence of 264scTCR/IL-2 fusion protein and the samples were analyzed by flow cytometry. Assay conditions including loading peptide used and presence or absence of fusion protein are indicated beneath each histogram. Single stained regions are marked 1 and 3 and the double stained cell poplulation is marked 2.
In this experiment, T2 cells pulsed with either the 149 or 264 peptide. CTLL-2 cells were hydrodiethidium (HE) labeled and incubated for 20 minutes at RT with an equal number of calcein-AM labeled T2 cells pulsed with either 50 μg of 149 or 264 peptide. […] In contrast, conjugate formation was not observed with the mixture that included the 149 peptide pulsed T2 cells (B; 0.88%). Cell samples were washed one time before analysis on the flow cytometer.
Samples were analyzed by flow cytometry. […] Thus, the scTCR/IL-2 fusion protein could be useful in a therapeutic approach for bringing together immune effector cells and tumor cells and stimulating immune cell-mediated activity against the tumor.
In general terms: A flow cytometer gives signals particle by particle.

The test system of the next experiment is YAC-1 target cells. Description: Lytic activity of stimulated nude mouse splenocytes (calcein release). It is filed as cell-based. Conditions: four days in equivalent molar amounts; YAC-1 targets.
Experiment [3] deals with immune cells (splenocytes, lymph nodes, bone marrow). Description: In vivo activation of immune cells in A375 tumor-bearing nude mice. The text has this:
FIG. 19A and FIG. 19B depict in vivo activation of immune cells in mice following scTCR/IL-2 treatment. […] Splenocytes were isolated at the indicated times and analyzed by flow cytometry for expression of CD25, CD122 or pan-NK markers. The plots indicate the percentage of CD25, CD122 or pan-NK-positive staining (dark line) compared with splenocyte staining with an isotype control mAb (red line).
The effect of the scTCR/IL-2 fusion proteins on immune cells was also investigated in vivo. […] Changes in IL-2R subunit expression were also assessed in immune cells isolated from the spleens, lymph nodes and bone marrow of 264scTCR/IL-2- or MART-1scTCR/IL-2-treated mice.

Experiment [4] deals with p53+/HLA-A2.1+ MDA-MB-231 tumor cells. Description: MDA-MB-231 xenograft tumor growth in nude mice. Format: in vivo. Conditions: compared to PBS; 9 doses i.v.
The subject of experiment [5] is p53+/HLA-A2.1+ PANC1 tumor cells. Description: PANC1 xenograft tumor growth in nude mice. It is filed as in vivo. Particulars: 9 doses i.v. On the procedure:
(§1) The tumor lines used in this study were MBA-MD-231 (p53+/HLA-A2.1+), PANC1 (p53+/HLA-A2.1+), AsPC1(p53-/HLA-A2.1-) and HT29 (p53+/HLA-A2.1-). […] J. Immunol. 176:3223. Primary tumors derived from these cells were established in nude mice following subcutaneous injection. Mice were then treated as previously described with 264scTCR/IL-2, rhIL-2 or PBS and tumor volumes were measured.

The test system of experiment [6] is p53-/HLA-A2.1- AsPC1 tumor cells. Description: AsPC1 xenograft tumor growth in nude mice. Particulars: 9 doses i.v. It is filed as in vivo. On the procedure: as §1
Experiment [7] relates to HT29 (p53+/HLA-A2.1-) tumors. As to the kind of experiment: HT29 xenograft tumor growth in nude mice. It is filed as in vivo. Conditions: not shown. On the procedure:
as §1

The test system of a further experiment is CD45R+ cells in tumors. Description: Immune cell infiltration into tumors (CD45R immunohistochemistry). Format: in vivo, nude mice.
For another experiment, the system named is A375 tumors. As to the kind of experiment: Tumor infiltration of adoptively transferred splenocytes pre-coated with scTCR/IL-2. It is filed as in vivo, nude mice. Conditions: 24 hrs after transfer of pre-coated splenocytes. How it is done: FIG. 28 depicts targeted tumor infiltration of adoptively transferred splenocytes pre-coated with scTCR/IL-2. […] Boxes, interquartile range of distribution (25th-75th percentile); line within box, median; whisker, 5th-[…]. *, P<0.0001; **, P<0.0001. At least three tumors per group and 10 fields per tumor were analyzed.
The activated splenocytes were isolated and incubated with the respective scTCR/IL-2 fusion proteins in vitro to coat the surface of the cells prior to transfer into A375 tumor bearing nude mouse recipients. Tumors were then isolated 24 hrs later and levels of CD45R+NK cells were assessed.

The subject of experiment [8] is human A375 cell line tumors. As to the kind of experiment: A375 primary tumor growth model in nude mice.

Take `O=P1(N(CCCl)CCCl)NCCCO1` (centres unmarked) [CTX, cyclophosphamide, reference compound]: the Median survival in experiment [1] is 52 days.

In the case of “264scTCR/IL-2: soluble three domain single-chain TCR specific to human p53 (aa 264-272)/HLA-A2.1 linked to human IL-2 via a peptide linker”, the “conjugated (double stained) cells, share of total population” value is listed as “approximately 0.9%” in [2] (149 control peptide-loaded T2 cells + CTLL-2 cells, fusion protein present (or fusion protein absent)); 0.88% in [2] (149 control peptide-loaded T2 cells + CTLL-2 cells, fusion protein present (or fusion protein absent), listed as 264 scTCR-IL-2); 3.25% in experiment [2] (264 peptide-loaded T2 cells + CTLL-2 cells, fusion protein present (1 μg)). Further, the “lytic activity of stimulated mouse splenocytes” value with YAC-1 target cells is “Equivalent levels of lytic activity”. Further, the NK cells result in experiment [3] (repeated administration) is on record as “treatment-dependent increase in NK cells”. For the same molecule, in experiment [3] (repeated daily i.v. 32 μg/dose), the “lymph nodes and spleens” value is “enlargement of lymph nodes and spleens”. For the same molecule, in [3] (repeated daily i.v. 32 μg/dose), the “serum IFN-γ levels” value is recorded as “increase in serum IFN-γ levels”. Moreover, the “expression of CD122 and CD25 in cells from lymph nodes and bone marrow” value in experiment [3] (repeated daily treatment) is on record as “Elevated expression”. Moreover, the “Splenocytes expressing IL-2Rα (CD25) or IL-2≈ (CD122)” value in [3] (repeated daily treatments, peak one day after fourth treatment) is recorded as “increased approximately three-fold”. The tumor growth result is on record as “significant antitumor effect” in experiment [4]; “significant antitumor effects” in experiment [5]; “tumor outgrowth was not inhibited” in [6]; “tumor outgrowth was not inhibited” in [7]; “significantly inhibited tumor growth” in experiment [8] (0.5 or 0.2 mg/kg, four daily injections, 10-day rest, four more, compared with 0.125 mg/kg rhIL-2). In addition, in the experiment with CD45R+ cells in tumors (A375 (p53+/HLA.A2.1+) tumor sections), the “CD45R-positive cells in A375 tumors” value is “Complete tumor infiltration of large CD45R+ cells”. Further, the “CD45R+ cell infiltration” value in the experiment on CD45R+ cells in tumors (A375 tumors, 10 μg/dose, four days of daily treatment) was 14.5 CD45R+ cells/field of view. For the same molecule, the “CD45R-positive cells in AsPC1 tumors” value with CD45R+ cells in tumors (AsPC1 (p53-/HLA-A2.1-) tumor sections) is listed as “no differences were observed between treatment groups”. The “cells bound with fusion protein infiltrating into tumors” value with A375 tumors is 3.0 BF1+ cells/field of view. For the same molecule, the “infiltration of CD45R+ cells” value with A375 tumors is given as 10.3 CD45R+ cells/field of view. Besides, the “mice that developed tumors” value is reported as “all of the mice developed tumors” in [8] (3 μg dose, 9 doses); “six of the eight” in experiment [8] (0.5 mg/kg/dose, 9 doses); 50% in experiment [8] (1.6 mg/kg i.v., 9 doses, tumors established three days); “four of the eight” in experiment [8] (1.6 mg/kg/dose, 9 doses). The average tumor size entry in experiment [8] (3 μg dose, 9 doses, vs PBS) is given as “significantly smaller than that of the PBS treated mice”. For the same molecule, the “A375 tumor growth compared to PBS” value in experiment [8] (0.5 mg/kg i.v., four daily injections, 10-day rest, four more) is on record as “potent antitumor activity”. The “tumor weight at the end of the study” value in experiment [8] (1.6 mg/kg and 0.5 mg/kg doses vs rhIL-2 0.4 mg/kg) is “significantly more effective at reducing tumor burden than the high dose of rhIL-2”. For the same molecule, the “tumor growth following two dosing cycles” value in experiment [8] (264scTCR/IL-2 0.5 mg/kg daily x4 per cycle, rhIL-2 0.4 mg/kg every 8 hrs for five days per cycle) is given as “inhibited tumor growth to a similar degree”. The “growth of well-established tumors” value in experiment [8] (tumors grown to 75 or 200 mm^3, 9 doses i.v.) is “marked inhibition of tumor growth and partial to complete regression of tumors in most mice”.
